The values that follow come from publication PMC8799717, “Pharmacological targeting PIKfyve and tubulin as an effective treatment strategy for double-hit lymphoma” (Cell Death Discovery, 2022).

Each structure is given as a SMILES string.

Among the targets are ACVR1B (Homo sapiens, UniProt P36896); AURKA (Homo sapiens, UniProt O14965); BUB1 (Homo sapiens, UniProt O43683); CAMK2A (Homo sapiens, UniProt Q9UQM7); CDK4 (Homo sapiens, UniProt P11802); EGFR(E746-A750del) (Homo sapiens, UniProt P00533, DEL746-750); ERN1 (Homo sapiens, UniProt O75460); FLT4 (Homo sapiens, UniProt P35916); GRK2 (Homo sapiens, UniProt P25098); HCK (Homo sapiens, UniProt P08631); MELK (Homo sapiens, UniProt Q14680); MYO3A (Homo sapiens, UniProt Q8NEV4); NEK7 (Homo sapiens, UniProt Q8TDX7); PIK3CA(Q546K) (Homo sapiens, UniProt P42336, Q546K); RET (Homo sapiens, UniProt P07949); ROCK1 (Homo sapiens, UniProt Q13464); STK36 (Homo sapiens, UniProt Q9NRP7); TAOK1 (Homo sapiens, UniProt Q7L7X3); WNK1 (Homo sapiens, UniProt Q9H4A3).

Test in all cases: biochemical
Set-up in all cases: KINOMEscan active-site-directed competition binding panel, 468 kinases, percent of DMSO control at 1 uM
What all share (settings): KINOMEscan binding, percent of DMSO control; read-out: Ctrl%

Assay [1] has as its target T1, ABL1(F317I)-phosphorylated (Homo sapiens, UniProt P00519, F317I).
T1 construct: phosphorylated

The target in assay [2] is T2, JAK1(JH1domain-catalytic) (Homo sapiens, UniProt P23458).
T2 construct: JH1domain-catalytic

A further assay has as its target T3, LOK (Homo sapiens, UniProt O94804).
T3 construct: gene STK10

Another assay has as its target T4, MLK3 (Homo sapiens, UniProt Q16584).
T4 construct: gene MAP3K11

The target of the next assay is T5, PCTK3 (Homo sapiens, UniProt Q07002).
T5 construct: gene CDK18
T5 sequence (Q07002 whole entry): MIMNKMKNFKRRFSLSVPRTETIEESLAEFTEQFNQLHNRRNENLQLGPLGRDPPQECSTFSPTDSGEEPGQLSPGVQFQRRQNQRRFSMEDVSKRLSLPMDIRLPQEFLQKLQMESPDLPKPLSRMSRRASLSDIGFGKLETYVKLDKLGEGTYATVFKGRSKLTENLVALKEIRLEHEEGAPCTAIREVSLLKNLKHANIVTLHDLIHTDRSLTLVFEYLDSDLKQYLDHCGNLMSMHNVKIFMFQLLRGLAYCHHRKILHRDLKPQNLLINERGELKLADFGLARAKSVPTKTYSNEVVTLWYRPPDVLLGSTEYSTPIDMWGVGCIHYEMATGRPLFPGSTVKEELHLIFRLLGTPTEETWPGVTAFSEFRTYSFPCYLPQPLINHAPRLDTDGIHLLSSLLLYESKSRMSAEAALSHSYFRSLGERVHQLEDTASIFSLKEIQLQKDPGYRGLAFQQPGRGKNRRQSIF

NEK7, sequence (Q8TDX7 whole entry): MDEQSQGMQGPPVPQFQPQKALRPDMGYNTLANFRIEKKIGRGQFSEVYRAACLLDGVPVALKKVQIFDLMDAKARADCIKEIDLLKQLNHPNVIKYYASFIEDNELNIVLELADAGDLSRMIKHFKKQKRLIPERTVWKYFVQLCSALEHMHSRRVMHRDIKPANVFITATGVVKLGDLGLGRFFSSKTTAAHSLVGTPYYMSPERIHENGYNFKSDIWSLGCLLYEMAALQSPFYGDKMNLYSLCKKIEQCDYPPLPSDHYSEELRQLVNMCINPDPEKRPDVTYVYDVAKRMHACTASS
MELK, sequence (Q14680 whole entry): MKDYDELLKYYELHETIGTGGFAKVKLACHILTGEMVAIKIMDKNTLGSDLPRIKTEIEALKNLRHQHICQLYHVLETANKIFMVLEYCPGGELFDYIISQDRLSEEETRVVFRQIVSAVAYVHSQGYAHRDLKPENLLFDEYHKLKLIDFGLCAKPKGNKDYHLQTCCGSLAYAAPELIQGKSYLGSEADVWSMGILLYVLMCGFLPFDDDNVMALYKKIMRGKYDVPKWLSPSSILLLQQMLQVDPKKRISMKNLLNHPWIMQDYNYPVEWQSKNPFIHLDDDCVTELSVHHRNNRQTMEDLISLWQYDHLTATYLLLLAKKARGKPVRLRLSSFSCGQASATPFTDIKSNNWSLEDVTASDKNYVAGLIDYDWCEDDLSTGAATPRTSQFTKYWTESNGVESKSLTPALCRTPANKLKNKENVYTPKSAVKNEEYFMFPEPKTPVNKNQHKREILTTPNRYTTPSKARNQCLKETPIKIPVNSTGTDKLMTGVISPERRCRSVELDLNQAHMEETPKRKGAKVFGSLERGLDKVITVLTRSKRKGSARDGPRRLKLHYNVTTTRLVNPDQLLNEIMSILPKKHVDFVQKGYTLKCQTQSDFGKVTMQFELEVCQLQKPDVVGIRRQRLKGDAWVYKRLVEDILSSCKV
T4 sequence (Q16584 whole entry): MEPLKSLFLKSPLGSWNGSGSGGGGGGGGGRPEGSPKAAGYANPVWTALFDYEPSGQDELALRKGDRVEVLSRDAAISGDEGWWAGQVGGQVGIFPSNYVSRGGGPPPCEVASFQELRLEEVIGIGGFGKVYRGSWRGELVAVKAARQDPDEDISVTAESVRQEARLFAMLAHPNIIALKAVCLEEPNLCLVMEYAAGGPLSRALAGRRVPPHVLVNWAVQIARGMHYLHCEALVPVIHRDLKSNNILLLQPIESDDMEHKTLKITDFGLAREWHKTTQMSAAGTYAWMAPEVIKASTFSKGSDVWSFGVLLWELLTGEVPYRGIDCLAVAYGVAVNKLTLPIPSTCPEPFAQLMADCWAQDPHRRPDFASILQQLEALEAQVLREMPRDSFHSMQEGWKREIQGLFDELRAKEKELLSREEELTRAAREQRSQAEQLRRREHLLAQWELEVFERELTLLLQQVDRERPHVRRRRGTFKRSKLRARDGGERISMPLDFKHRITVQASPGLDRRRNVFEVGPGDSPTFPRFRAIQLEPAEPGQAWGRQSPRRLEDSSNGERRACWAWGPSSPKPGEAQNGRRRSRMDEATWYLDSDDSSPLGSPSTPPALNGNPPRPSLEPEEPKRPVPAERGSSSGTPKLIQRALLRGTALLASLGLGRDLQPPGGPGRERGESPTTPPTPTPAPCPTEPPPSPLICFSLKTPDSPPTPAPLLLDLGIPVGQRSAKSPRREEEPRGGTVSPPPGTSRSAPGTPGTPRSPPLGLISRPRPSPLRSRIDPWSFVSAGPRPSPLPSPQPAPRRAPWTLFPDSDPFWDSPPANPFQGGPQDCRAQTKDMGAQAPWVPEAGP
TAOK1, sequence (Q7L7X3 whole entry): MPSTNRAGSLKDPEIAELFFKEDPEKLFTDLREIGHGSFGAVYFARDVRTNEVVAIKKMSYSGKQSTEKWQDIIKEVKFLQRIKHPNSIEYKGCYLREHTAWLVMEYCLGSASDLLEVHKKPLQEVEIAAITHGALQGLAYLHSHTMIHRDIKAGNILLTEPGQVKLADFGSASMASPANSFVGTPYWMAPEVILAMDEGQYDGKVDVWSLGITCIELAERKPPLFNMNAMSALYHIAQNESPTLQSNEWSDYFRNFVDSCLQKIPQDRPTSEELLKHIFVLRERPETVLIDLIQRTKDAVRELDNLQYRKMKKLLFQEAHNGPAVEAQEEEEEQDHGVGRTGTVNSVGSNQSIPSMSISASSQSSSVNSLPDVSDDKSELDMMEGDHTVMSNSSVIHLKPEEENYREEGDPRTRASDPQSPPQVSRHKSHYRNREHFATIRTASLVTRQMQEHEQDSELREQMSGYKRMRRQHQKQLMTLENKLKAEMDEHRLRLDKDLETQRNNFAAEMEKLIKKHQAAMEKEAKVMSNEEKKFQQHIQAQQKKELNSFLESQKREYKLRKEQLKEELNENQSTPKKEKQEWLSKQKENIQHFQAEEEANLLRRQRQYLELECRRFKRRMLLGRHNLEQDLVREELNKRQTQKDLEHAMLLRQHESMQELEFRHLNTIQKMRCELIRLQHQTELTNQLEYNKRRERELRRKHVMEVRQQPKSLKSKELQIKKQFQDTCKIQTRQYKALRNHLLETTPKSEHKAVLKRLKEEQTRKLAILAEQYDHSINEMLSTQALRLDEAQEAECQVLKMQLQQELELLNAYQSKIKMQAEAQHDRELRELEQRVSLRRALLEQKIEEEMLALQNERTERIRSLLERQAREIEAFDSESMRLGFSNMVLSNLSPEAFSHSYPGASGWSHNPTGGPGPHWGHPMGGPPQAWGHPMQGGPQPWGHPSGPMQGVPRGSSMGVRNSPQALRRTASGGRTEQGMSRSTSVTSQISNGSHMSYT
CDK4, sequence (P11802 whole entry): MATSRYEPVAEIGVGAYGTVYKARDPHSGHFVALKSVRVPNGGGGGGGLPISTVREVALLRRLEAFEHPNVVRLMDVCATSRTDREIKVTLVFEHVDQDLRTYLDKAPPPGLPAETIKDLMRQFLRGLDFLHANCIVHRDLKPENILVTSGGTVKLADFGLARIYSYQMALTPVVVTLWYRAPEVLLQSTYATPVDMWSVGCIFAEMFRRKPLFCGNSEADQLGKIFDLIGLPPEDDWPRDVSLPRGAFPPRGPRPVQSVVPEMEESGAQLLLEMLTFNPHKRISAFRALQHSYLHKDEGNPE
AURKA, sequence (O14965 whole entry): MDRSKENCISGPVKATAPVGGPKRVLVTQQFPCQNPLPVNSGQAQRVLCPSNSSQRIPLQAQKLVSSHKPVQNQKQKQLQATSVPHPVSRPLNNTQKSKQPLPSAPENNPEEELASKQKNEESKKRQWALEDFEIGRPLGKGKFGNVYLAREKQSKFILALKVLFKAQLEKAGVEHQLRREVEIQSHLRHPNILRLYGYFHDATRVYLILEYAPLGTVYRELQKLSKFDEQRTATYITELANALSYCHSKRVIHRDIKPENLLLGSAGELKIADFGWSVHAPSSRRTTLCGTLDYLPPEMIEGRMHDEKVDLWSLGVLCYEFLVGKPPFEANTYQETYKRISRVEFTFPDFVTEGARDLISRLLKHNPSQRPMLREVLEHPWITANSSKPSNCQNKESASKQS
PIK3CA(Q546K), sequence (P42336 whole entry Q546K): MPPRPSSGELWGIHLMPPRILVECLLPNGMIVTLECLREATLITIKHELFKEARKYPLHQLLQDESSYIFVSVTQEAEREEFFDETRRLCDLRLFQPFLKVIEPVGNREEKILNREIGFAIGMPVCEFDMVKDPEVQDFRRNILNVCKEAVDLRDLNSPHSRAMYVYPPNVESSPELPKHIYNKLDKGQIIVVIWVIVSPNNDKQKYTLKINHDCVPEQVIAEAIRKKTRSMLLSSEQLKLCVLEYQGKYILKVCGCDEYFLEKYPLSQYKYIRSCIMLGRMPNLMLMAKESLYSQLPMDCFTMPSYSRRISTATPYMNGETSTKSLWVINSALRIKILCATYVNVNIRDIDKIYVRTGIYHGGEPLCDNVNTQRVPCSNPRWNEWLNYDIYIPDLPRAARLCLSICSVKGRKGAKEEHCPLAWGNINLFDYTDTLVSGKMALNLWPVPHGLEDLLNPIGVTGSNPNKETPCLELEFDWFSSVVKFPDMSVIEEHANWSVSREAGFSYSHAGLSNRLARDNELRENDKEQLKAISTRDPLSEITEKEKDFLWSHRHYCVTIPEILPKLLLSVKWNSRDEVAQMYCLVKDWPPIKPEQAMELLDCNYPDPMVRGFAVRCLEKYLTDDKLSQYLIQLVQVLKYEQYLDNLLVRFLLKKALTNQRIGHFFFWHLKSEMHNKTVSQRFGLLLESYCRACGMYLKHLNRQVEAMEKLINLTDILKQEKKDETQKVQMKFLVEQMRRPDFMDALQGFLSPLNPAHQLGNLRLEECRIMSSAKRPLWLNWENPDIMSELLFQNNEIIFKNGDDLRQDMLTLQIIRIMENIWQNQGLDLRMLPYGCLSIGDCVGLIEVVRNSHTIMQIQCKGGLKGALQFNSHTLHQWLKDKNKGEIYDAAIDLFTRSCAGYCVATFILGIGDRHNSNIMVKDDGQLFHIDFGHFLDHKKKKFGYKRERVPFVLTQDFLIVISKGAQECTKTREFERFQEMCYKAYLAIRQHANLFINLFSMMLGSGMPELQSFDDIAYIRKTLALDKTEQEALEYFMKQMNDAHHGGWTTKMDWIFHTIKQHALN

In the case of `Cc1ccc(NC(=O)c2cccc(C(F)(F)F)c2)cc1Nc1cc(-c2cccnc2)nc2[nH]ccc12` [HZX-02-059], the remaining binding at 1 µM came to 55% in assay [1]; 72% on ACVR1B; 100% at AURKA; 100% at BUB1; 98% on CAMK2A; 100% at CDK4. Also, the remaining binding at 1 µM is 90% at EGFR(E746-A750del); 66% on ERN1; 94% on FLT4; 100% on GRK2; 84% at HCK; 100% in assay [2]. Also, the remaining binding at 1 µM on LOK is 47%; on MELK it was 96%; on MLK3 it was 87%; at MYO3A, 91%; on NEK7, 73%; on PCTK3, 84%. The remaining binding at 1 µM at PIK3CA(Q546K) turned out to be 66%; on RET, 90%; at ROCK1, 100%; at STK36 it was 89%; on TAOK1 it was 100%; at WNK1, 98%.
